In the supplement of paper PMC11208160:

experiment: recombinant UMI read abundance after kanamycin selection (control-corrected) (log10(CPM+1)); higher = more efficient recombination; extreme values may be limits of the assay; sequences stand for … in AGTGCAGAGAAAATCGGCCAGTTTTCTCTGCCTGCAGTCCGCATGCCGTGGGACCCCTTGGGTTCTAACCTGTTGCCTAGATTTATGCAGCGGACTGCCTTTCTCCCAAAGTGATAAACCGG…AGGTTGGTTTCACT; site = the 11-nt donor
Outline: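 In a pooled Escherichia coli screen for the IS621 bridge recombinase, donor and donor-binding-loop pairs were each placed with a 12-nt UMI on a plasmid bearing a promoterless kanamycin gene. This library was co-electroporated with a target plasmid encoding a fixed target and T7-inducible recombinase, and cells were plated either on IPTG (0.07 mM) plus kanamycin or without selection, in two replicates each. Recombinant UMIs were PCR-amplified across the donor–target junction and sequenced, and counts were converted to CPM, averaged over replicates, scaled by control-derived factors and reported as log10(CPM+1).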
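Also: IS621 bridge recombinase in Escherichia coli cells against a fixed T5 target plasmid.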

Point of comparison: “ACTAGTGCATGGACCGGTTTTCCCGGTAATCCGTATTTGGT (site ACTACTGCTAC)”, “recombinant UMI read abundance (log10)” value 0.285. Against it:
- AGAAGGGCATGGACCGGTTTTCCCGGTAATCCGTATTTGAG (site AGAAGGGCTCT) — higher, 1.64
- CGATCGACATGGACCGGTTTTCCCGGTAATCCGTATTTGTT (site TGATCGACTAA) — lower, 0.00749
- AGTACCACATGGACCGGTTTTCCCGGTAATCCGTATTTGTT (site AGTACCACTAA) — within 0.2 log units, 0.274
- AGGATTTCATGGACCGGTTTTCCCGGTAATCCGTATTTGCG (site AGGATTTCTCG) — higher, 1.32
- CTAGTTGCATGGACCGGTTTTCCCGGTAATCCGTATTTGAC (site CTAGTATCTGT) — within 0.2 log units, 0.412
- GTTCCAGCATGGACCGGTTTTCCCGGTAATCCGTATTTGCA (site GTTCTAGCTTG) — lower, 0
- GATTGGCCATGGACCGGTTTTCCCGGTAATCCGTATTTGCG (site GATTGGCCTCG) — within 0.2 log units, 0.115
- CGATTGGCATGGACCGGTTTTCCCGGTAATCCGTATTTGCT (site CGATTGGCTAG) — higher, 0.768
- ACAGGGCCATGGACCGGTTTTCCCGGTAATCCGTATTTGCT (site ACAGGGCCTAG) — higher, 1.1
- CGATCGCCATGGACCGGTTTTCCCGGTAATCCGTATTTGCT (site CGATCGCCTAG) — within 0.2 log units, 0.27
- GTGGAGGCATGGACCGGTTTTCCCGGTAATCCGTATTTGGG (site GTGGAGGCTCT) — higher, 0.567
- CCTCGGACATGGACCGGTTTTCCCGGTAATCCGTATTTGGT (site CCTCGGACTAC) — lower, 0.013
- CTCCATACATGGACCGGTTTTCCCGGTAATCCGTATTTGAG (site CTCCTTACTCT) — lower, 0.0162
- TAGGCTTCATGGACCGGTTTTCCCGGTAATCCGTATTTGGT (site TAGACTTCTAC) — within 0.2 log units, 0.0923
- ATGACTACATGGACCGGTTTTCCCGGTAATCCGTATTTGAC (site ATGACTACTGT) — higher, 2.54
- GCGAAAACATGGACCGGTTTTCCCGGTAATCCGTATTTGCC (site GCGAAAACTTG) — lower, 0
- CGCGGTCCATGGACCGGTTTTCCCGGTAATCCGTATTTGCA (site CCCGGTCCTTG) — within 0.2 log units, 0.3
- CCCAATACATGGACCGGTTTTCCCGGTAATCCGTATTTGGC (site CCAAATACTGC) — lower, 0
- AGCCGTCCATGGACCGGTTTTCCCGGTAATCCGTATTTGAT (site ACCCGTCCTAT) — lower, 0
- AGCCTCTCATGGACCGGTTTTCCCGGTAATCCGTATTTGAC (site AGCCTATCTGT) — lower, 0
- TCAGCCTCATGGACCGGTTTTCCCGGTAATCCGTATTTGAT (site TCAGCCTCTAT) — higher, 1.36
- CGCCCTACATGGACCGGTTTTCCCGGTAATCCGTATTTGCT (site CGCCATACTAG) — lower, 0
- ATTAAGACATGGACCGGTTTTCCCGGTAATCCGTATTTGGT (site ATTGAGACTAC) — higher, 0.577
- GGATAGCCATGGACCGGTTTTCCCGGTAATCCGTATTTGCC (site GGATAGTCTGG) — higher, 2.42
- CTCTACACATGGACCGGTTTTCCCGGTAATCCGTATTTGCT (site CACTACACTAG) — higher, 1.63
- ATTGTAACATGGACCGGTTTTCCCGGTAATCCGTATTTGCT (site AATGTAACTAG) — higher, 1.49
- CCCCCTACATGGACCGGTTTTCCCGGTAATCCGTATTTGAG (site CTCCCTACTCT) — lower, 0.011
- AGCCGCTCATGGACCGGTTTTCCCGGTAATCCGTATTTGAT (site AGCCGCTCTAT) — higher, 1.65
- ACTAGAGCATGGACCGGTTTTCCCGGTAATCCGTATTTGGT (site ACTAGAGCTAC) — higher, 1.72
- TCAGCTGCATGGACCGGTTTTCCCGGTAATCCGTATTTGTG (site TTAGCTGCTCA) — lower, 0.0047
- CCGTTAGCATGGACCGGTTTTCCCGGTAATCCGTATTTGTG (site CCGTTGGCTCA) — lower, 0.0165
- TTGGCTGCATGGACCGGTTTTCCCGGTAATCCGTATTTGTG (site TTCGCTGCTCA) — lower, 0.0142
- CGATCGACATGGACCGGTTTTCCCGGTAATCCGTATTTGTT (site CGAACGACTAA) — lower, 0.0148
- TCTTCTACATGGACCGGTTTTCCCGGTAATCCGTATTTGAC (site TCTTCTACTGT) — lower, 0
- CGATGCACATGGACCGGTTTTCCCGGTAATCCGTATTTGAT (site CGATGCACTAT) — higher, 2.34
- TACAGACCATGGACCGGTTTTCCCGGTAATCCGTATTTGTC (site TACAGACCTGA) — lower, 0
- CCGTTTACATGGACCGGTTTTCCCGGTAATCCGTATTTGCC (site CCGTTTACTGG) — lower, 0
- CCCGGTCCATGGACCGGTTTTCCCGGTAATCCGTATTTGCT (site CCCGGTCCTCG) — lower, 0.0027
- CTCCATACATGGACCGGTTTTCCCGGTAATCCGTATTTGAG (site CTCCATACTCT) — higher, 1.27
- GACTGGCCATGGACCGGTTTTCCCGGTAATCCGTATTTGCA (site GACTGGCCTTG) — lower, 0
- TTTCACGCATGGACCGGTTTTCCCGGTAATCCGTATTTGGT (site TTTCACGCTAC) — lower, 0.0228
- AAGCTAGCATGGACCGGTTTTCCCGGTAATCCGTATTTGAA (site CAGCTAGCTTT) — higher, 1.37
- GAATAGACATGGACCGGTTTTCCCGGTAATCCGTATTTGCC (site GTATAGACTGG) — higher, 2.39
- AGCTCAGCATGGACCGGTTTTCCCGGTAATCCGTATTTGCG (site AGCTCAGCTCG) — higher, 0.537
- ACCCTTTCATGGACCGGTTTTCCCGGTAATCCGTATTTGAC (site AACCTTTCTGT) — lower, 0
- CAAGTATCATGGACCGGTTTTCCCGGTAATCCGTATTTGTC (site CTAGTATCTGT) — lower, 0
- TGCAGCACATGGACCGGTTTTCCCGGTAATCCGTATTTGCG (site TGCAGCACTCG) — higher, 0.686
- GATTATGCATGGACCGGTTTTCCCGGTAATCCGTATTTGGA (site GATTATGCTTC) — higher, 0.861
- AGACGAACATGGACCGGTTTTCCCGGTAATCCGTATTTGTC (site AGACGAACTGA) — higher, 1.35
- AGAACGGCATGGACCGGTTTTCCCGGTAATCCGTATTTGCT (site AGAAGGGCTAG) — lower, 0
- GGAGTTGCATGGACCGGTTTTCCCGGTAATCCGTATTTGGT (site GGAGTAGCTAC) — within 0.2 log units, 0.089
- AGCTCAGCATGGACCGGTTTTCCCGGTAATCCGTATTTGCG (site AGCTCAGCTCT) — within 0.2 log units, 0.277
- GGCAAGCCATGGACCGGTTTTCCCGGTAATCCGTATTTGAA (site GGCAAACCTTT) — lower, 0
- CGGGAGCCATGGACCGGTTTTCCCGGTAATCCGTATTTGAT (site CGGGATCCTAT) — lower, 0.0423
- GACAAAACATGGACCGGTTTTCCCGGTAATCCGTATTTGGC (site GACAAAACTGC) — lower, 0
- CCATCATCATGGACCGGTTTTCCCGGTAATCCGTATTTGTT (site CGATCATCTAG) — lower, 0
- GGGGCAACATGGACCGGTTTTCCCGGTAATCCGTATTTGCA (site GGGGCACCTTG) — lower, 0.00712
- ACTAGTGCATGGACCGGTTTTCCCGGTAATCCGTATTTGGC (site ACTAGTGCTTC) — within 0.2 log units, 0.32
- ACGGCATCATGGACCGGTTTTCCCGGTAATCCGTATTTGCA (site ACAGTATCTTG) — higher, 1.47
- TGTAAGCCATGGACCGGTTTTCCCGGTAATCCGTATTTGAC (site TGTAAGCCTGT) — lower, 0
- ACCTACGCATGGACCGGTTTTCCCGGTAATCCGTATTTGAA (site ACCTACGCTTT) — higher, 1.09
- AGGAAGGCATGGACCGGTTTTCCCGGTAATCCGTATTTGCA (site AGGAAGGCTTG) — higher, 2.41
- CTCGAAACATGGACCGGTTTTCCCGGTAATCCGTATTTGCA (site CTCGAAACTTG) — higher, 2.34
- CGATCGACATGGACCGGTTTTCCCGGTAATCCGTATTTGTT (site CGATCGCCTAA) — lower, 0.00955
- CGTGTGGCATGGACCGGTTTTCCCGGTAATCCGTATTTGCT (site CGTTTGGCTAG) — lower, 0
- CCAATTGCATGGACCGGTTTTCCCGGTAATCCGTATTTGAG (site CCAATTGCTCT) — higher, 0.865
- GTTGAGACATGGACCGGTTTTCCCGGTAATCCGTATTTGGT (site TTTGAGACTAC) — higher, 0.683
- AGTACGTCATGGACCGGTTTTCCCGGTAATCCGTATTTGTT (site GGTACGTCTAA) — within 0.2 log units, 0.198
- GTTCTTCCATGGACCGGTTTTCCCGGTAATCCGTATTTGGT (site GTTGTTCCTAC) — lower, 0.0119
- GAATAGACATGGACCGGTTTTCCCGGTAATCCGTATTTGCC (site GAATAGACTGG) — higher, 2.33
- GCGAAGGCATGGACCGGTTTTCCCGGTAATCCGTATTTGGG (site GCGAAGCCTCC) — lower, 0.00939
- AGAACCCCATGGACCGGTTTTCCCGGTAATCCGTATTTGGT (site AGAACCCCTAC) — higher, 0.545
- AGGAAGACATGGACCGGTTTTCCCGGTAATCCGTATTTGCA (site AGGAATACTTC) — lower, 0
- CTACTTACATGGACCGGTTTTCCCGGTAATCCGTATTTGGA (site CTACTAACTTC) — within 0.2 log units, 0.0935
